From patent US9199984B2, “Inhibition of enzymes” (CHIESI FARMACEUTICI S.p.A., priority 2012, dated 2015)
Structures can show the parent of a compound that is named as a salt.

target: T1, human neutrophil elastase (HNE) (Homo sapiens, UniProt P08246); test: HNE enzyme activity assay; assay type: biochemical; conditions: human leukocyte elastase, substrate MeOSuc-Ala-Ala-Pro-Val-AMC 100 μM, 25° C. for 30 minutes, fluorescence; read-out: HNE inhibition
T1 construct: purchased Sigma E8140
T1 sequence (P08246 30-247 limits assumed): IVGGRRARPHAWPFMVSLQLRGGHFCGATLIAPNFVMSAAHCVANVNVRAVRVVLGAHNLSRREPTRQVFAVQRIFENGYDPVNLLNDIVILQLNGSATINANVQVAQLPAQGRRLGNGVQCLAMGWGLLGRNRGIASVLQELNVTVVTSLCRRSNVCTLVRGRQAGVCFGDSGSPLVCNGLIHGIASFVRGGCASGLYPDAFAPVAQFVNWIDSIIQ
Method: Compounds of the present invention were tested for potency in a human neutrophil elastase (HNE) enzyme activity assay.
Assays were performed in 96-well plates in a total assay volume of 100 μl. The final concentration of elastase enzyme (human leukocyte elastase, Sigma E8140) was 0.0036 units/well […]. The peptide substrate (MeOSuc-Ala-Ala-Pro-Val-AMC, Calbiochem #324740) was used at a final concentration of 100 μM. The final concentration of DMSO was 1% in the assay buffer (0.05M Tris.HCl, 0.1M NaCl, 0.1M CaCl2, 0.0005% brij-35, pH 7.5). The enzymatic reaction was started by addition of the enzyme and incubated at 25° C. for 30 minutes. After incubation, the reaction was stopped by addition of soybean trypsin inhibitor (Sigma T9003) at a final concentration of 50 μg/well. Fluorescence was measured using a Molecular Devices fluorescence plate reader using 380 nm excitation and 460 nm emission wavelengths.
A dose response to each compound was performed and the effect of compound in each experiment was expressed as a percentage inhibition of the control enzyme fluorescence. Dose response curves were plotted and compound potency (IC50) was determined. Compounds were tested in at least two separate experiments.

IC50 [nM]	SMILES
< 20	Cc1c(-c2ccnn2-c2ccc(C#N)cc2)cn2nc(NC(=O)c3ccc(S(C)(=O)=O)cc3)nc2c1-c1cccc(C(F)(F)F)c1 [Example 22, N-[6-[2-(4-Cyano-phenyl)-2H-pyrazol-3-yl]-7-methyl-8-(3-trifluoromethyl-phenyl)-[1,2,4]triazolo[1,5-a]pyridin-2-yl]-4-methanesulfonyl-benzamide]
< 20	Cc1c(-c2ccnn2-c2ccc(C#N)cc2)cn2nc(NCCCCN(C)C)nc2c1-c1cccc(C(F)(F)F)c1 [Example 30, 4-{5-[2-(4-Dimethylamino-butylamino)-7-methyl-8-(3-trifluoromethyl-phenyl)-[1,2,4]triazolo[1,5-a]pyridin-6-yl]-pyrazol-1-yl}-benzonitrile]
< 20	Cc1c(-c2ccnn2-c2ccc(C#N)cc2)cn2nc(NC(=O)CN3CCOCC3)nc2c1-c1cccc(C(F)(F)F)c1 [Example 20, N-[6-[2-(4-Cyano-phenyl)-2H-pyrazol-3-yl]-7-methyl-8-(3-trifluoromethyl-phenyl)-[1,2,4]triazolo[1,5-a]pyridin-2-yl]-2-morpholin-4-yl-acetamide]
> 500	Cc1c(-c2ccnn2-c2ccc(C#N)cc2)cn2c(=O)n(CC(=O)N(C)C)nc2c1-c1cccc(C(F)(F)F)c1 [Example 11, 2-[6-[2-(4-Cyano-phenyl)-2H-pyrazol-3-yl]-7-methyl-3-oxo-8-(3-trifluoromethyl-phenyl)-[1,2,4]triazolo[4,3-a]pyridin-2-yl]-N,N-dimethyl-acetamide]
< 20	Cc1c(-c2ccnn2-c2ccc(C#N)cc2)cn2nc(NCCCS(C)(=O)=O)nc2c1-c1cccc(C(F)(F)F)c1 [Example 47, 4-{5-[2-(3-Methanesulfonyl-propylamino)-7-methyl-8-(3-trifluoromethyl-phenyl)-[1,2,4]triazolo[1,5-a]pyridin-6-yl]-pyrazol-1-yl}-benzonitrile]
< 20	Cc1c(-c2ccnn2-c2ccc(C#N)cc2)cn2nc(NCc3ccc(S(C)(=O)=O)cc3)nc2c1-c1cccc(C(F)(F)F)c1 [Example 23, 4-{5-[2-(4-Methanesulfonyl-benzylamino)-7-methyl-8-(3-trifluoromethyl-phenyl)-[1,2,4]triazolo[1,5-a]pyridin-6-yl]-pyrazol-1-yl}-benzonitrile]
20 to 100	Cc1c(-c2ccnn2-c2ccc(C#N)cc2)cn2nc(NC(=O)C[N+](C)(C)C)nc2c1-c1cccc(C(F)(F)F)c1 [Example 15, {[6-[2-(4-Cyano-phenyl)-2H-pyrazol-3-yl]-7-methyl-8-(3-trifluoromethyl-phenyl)-[1,2,4]triazolo[1,5-a]pyridin-2-ylcarbamoyl]-methyl}-trimethyl-ammonium bromide]
100 to 500	Cc1c(-c2ccnn2-c2ccc(C#N)cc2)cn2cc(NC(=O)C(F)(F)F)nc2c1-c1cccc(C(F)(F)F)c1 [Example 2]
< 20	Cc1c(-c2ccnn2-c2ccc(C#N)cc2)cn2nc(NC(=O)CCS(C)(=O)=O)nc2c1-c1cccc(C(F)(F)F)c1 [Example 46, N-[6-[2-(4-Cyano-phenyl)-2H-pyrazol-3-yl]-7-methyl-8-(3-trifluoromethyl-phenyl)-[1,2,4]triazolo[1,5-a]pyridin-2-yl]-3-methanesulfonyl-propionamide]
< 20	Cc1c(-c2ccnn2-c2ccc(C#N)cc2)cn2nc(NCCCCO)nc2c1-c1cccc(C(F)(F)F)c1 [Example 54, 4-{5-[2-(4-Hydroxy-butylamino)-7-methyl-8-(3-trifluoromethyl-phenyl)-[1,2,4]triazolo[1,5-a]pyridin-6-yl]-pyrazol-1-yl}-benzonitrile]
< 20	CC(=O)Nc1nc2c(-c3cccc(C(F)(F)F)c3)c(C)c(-c3ccnn3-c3ccc(C#N)cc3)cn2n1 [Example 26, N-[6-[2-(4-Cyano-phenyl)-2H-pyrazol-3-yl]-7-methyl-8-(3-trifluoromethyl-phenyl)-[1,2,4]triazolo[1,5-a]pyridin-2-yl]-acetamide]
< 20	Cc1c(-c2ccnn2-c2ccc(C#N)cc2)cn2nc(NC(=O)CC[S+](C)[O-])nc2c1-c1cccc(C(F)(F)F)c1 (stereo not shown) [Example 45, N-[6-[2-(4-Cyano-phenyl)-2H-pyrazol-3-yl]-7-methyl-8-(3-trifluoromethyl-phenyl)[1,2,4]triazolo[1,5-a]pyridin-2-yl]-3-methanesulfinyl-propionamide]
< 20	Cc1c(-c2ccnn2-c2ccc(C#N)cc2)cn2nc(NC(=O)NCCC[N+](C)(C)C)nc2c1-c1cccc(C(F)(F)F)c1 [Example 38, (3-{3-[6-[2-(4-Cyano-phenyl)-2H-pyrazol-3-yl]-7-methyl-8-(3-trifluoromethyl-phenyl)-[1,2,4]triazolo[1,5-a]pyridin-2-yl]-ureido}-propyl)-trimethyl-ammonium formate]
20 to 100	Cc1c(-c2ccnn2-c2ccc(C#N)cc2)cn2nc(NC(=O)C[N+]3(C)CCN(C)CC3)nc2c1-c1cccc(C(F)(F)F)c1 [Example 25, 1-{[6-[2-(4-Cyano-phenyl)-2H-pyrazol-3-yl]-7-methyl-8-(3-trifluoromethyl-phenyl)-[1,2,4]triazolo[1,5-a]pyridin-2-ylcarbamoyl]-methyl}-1,4-dimethyl-piperazin-1-ium chloride]
< 20	CCNC(=O)Nc1nc2c(-c3cccc(C(F)(F)F)c3)c(C)c(-c3ccnn3-c3ccc(C#N)cc3)cn2n1 [Example 52, 1-[6-[2-(4-Cyano-phenyl)-2H-pyrazol-3-yl]-7-methyl-8-(3-trifluoromethyl-phenyl)-[1,2,4]triazolo[1,5-a]pyridin-2-yl]-3-ethyl-urea]
< 20	CC(=O)Nc1nc2c(-c3cccc(C(F)(F)F)c3)c(C)c(-c3ccnn3-c3ccc(C#N)cc3F)cn2n1 [Example 41, N-[6-[2-(4-Cyano-2-fluoro-phenyl)-2H-pyrazol-3-yl]-7-methyl-8-(3-trifluoromethyl-phenyl)-[1,2,4]triazolo[1,5-a]pyridin-2-yl]-acetamide]
< 20	CCOC(=O)Nc1nc2c(-c3cccc(C(F)(F)F)c3)c(C)c(-c3ccnn3-c3ccc(C#N)cc3)cn2n1 [Example 35, [6-[2-(4-Cyano-phenyl)-2H-pyrazol-3-yl]-7-methyl-8-(3-trifluoromethyl-phenyl)-[1,2,4]triazolo[1,5-a]pyridin-2-yl]-carbamic acid ethyl ester]
< 20	Cc1c(-c2ccnn2-c2ccc(C#N)cc2)cn2nc(NC(=O)CN3CC[N+](C)(C)CC3)nc2c1-c1cccc(C(F)(F)F)c1 [Example 19, 4-{[6-[2-(4-Cyano-phenyl)-2H-pyrazol-3-yl]-7-methyl-8-(3-trifluoromethyl-phenyl)-[1,2,4]triazolo[1,5-a]pyridin-2-ylcarbamoyl]-methyl}-1,1-dimethyl-piperazin-1-ium iodide]
< 20	Cc1c(-c2ccnn2-c2ccc(C#N)cc2)cn2nc(NCCC[N+](C)(C)C)nc2c1-c1cccc(C(F)(F)F)c1 [Example 32, {3-[6-[2-(4-Cyano-phenyl)-2H-pyrazol-3-yl]-7-methyl-8-(3-trifluoromethyl-phenyl)-[1,2,4]triazolo[1,5-a]pyridin-2-ylamino]-propyl}-trimethyl-ammonium benzenesulfonate]
